Assay results taken from PubChem BioAssay AID1398 (The Scripps Research Institute Molecular Screening Center, 2008).
Calls of active or inactive are those of the source. How the calls were made is not given here.

The compounds below were run against Signal transducer and activator of transcription 3 (Homo sapiens) (UniProt P40763) (assay: STAT3 activation reporter response, dose response, cell-based (AID 1398)).

Row | Structure (SMILES) | IC50
1 | COc1cccc2sc(Nc3nnc(-c4ccc(F)cc4)o3)nc12 | > 0.688 µM (inactive)
2 | Cn1nc(-c2ccc(Cl)cc2)c2cc(C(=O)NCCCN3CCOCC3)sc21 | inactive
3 | CC(OC(=O)c1cccnc1SCc1cc(=O)n2ccccc2n1)c1ccccn1 (stereo not drawn) | > 6.19 µM (inactive)
4 | Cc1cc(-c2ccc(Cl)cc2)c(C#N)c(N)n1 | 5.9 µM
5 | O=C(Cc1cnc2ncnn2c1)N1CCc2c([nH]c3ccccc23)C1c1ccccc1F (stereo not drawn) | inactive
6 | Cn1nc(-c2ccc(Cl)cc2)c2cc(C(=O)NCCN3CCOCC3)sc21 | 6.88 µM
7 | CCOc1ccccc1CN1CCN(Cc2cc3ccccc3[nH]2)CC1CCO (stereo not drawn) | > 55.7 µM (inactive)
8 | CCCc1nnc(N2C(=O)c3cccc4cccc(c34)C2=O)s1 | > 55.7 µM (inactive)
9 | O=C(Cc1cccs1)Nc1ccccn1 | 8.06 µM
10 | O=C(CCN1CCOCC1)N1CCc2c([nH]c3ccccc23)C1c1cccc(Cl)c1 (stereo not drawn) | 7.41 µM
11 | Cc1nc2c(n1C1CCCCC1)C(=O)c1ccccc1C2=O | 5.8 µM
12 | CCOc1cc(-c2ccc(N)c(OCC)c2)ccc1N | > 55.7 µM (inactive)
13 | CN(C)C(=O)COC(=O)/C=C/c1ccccc1[N+](=O)[O-] | 7.75 µM
14 | Cc1nc2ccccc2cc1O | 3.4 µM
15 | O=C(CCCSc1nc2ccccc2s1)NCc1ccco1 | inactive
16 | CN1C(=O)/C(=C\c2cc(Br)cs2)c2ccccc21 | 0.635 µM
17 | COc1ccc(-c2nnc(Nc3nc4c(OC)cccc4s3)o2)cc1 | > 55.7 µM (inactive)
18 | COCCCNC(=O)c1cc2c(-c3ccc(Cl)cc3)nn(C)c2s1 | > 55.7 µM (inactive)
19 | O=C(CCc1nnc(Cc2ccc3c(c2)OCO3)o1)NCc1nc2ccccc2s1 | 2.85 µM

Row | Structure (SMILES) | IC50
20 | O=C(c1cccnc1)N1CCc2ccccc21 | 8.13 µM
21 | O=C(Cc1c[nH]c2ccccc12)Nc1nnc(C2CC2)s1 | 2.98 µM
22 | Cc1ccc(CC(=O)Nc2nc3c(s2)CCCC3)cc1 | > 55.7 µM (inactive)
23 | COc1ccc(CN2CCN(S(=O)(=O)c3ccc(C)cc3)CC2)cc1Br | 6.13 µM
24 | CCOc1ccc(CN2CCN(Cc3cc4ccccc4[nH]3)CC2CCO)cc1 (stereo not drawn) | 0.644 µM
25 | COc1ccc(Cl)cc1NC(=O)c1oc(C)nc1C | > 55.7 µM (inactive)
26 | Cc1c(C(=O)NCc2cccnc2)oc2ccc(S(=O)(=O)N3CC(C)CC(C)C3)cc12 (stereo not drawn) | > 55.7 µM (inactive)
27 | CN(Cc1ccccc1)Cc1c[nH]c2ccccc12 | > 55.7 µM (inactive)
28 | CC1CCN(C(=O)Cn2c(=O)n(CCc3ccccc3)c(=O)c3ccccc32)CC1 | > 55.7 µM (inactive)
29 | c1ccc2c(c1)CCCN2c1nc2ccccc2n2cnnc12 | 1.36 µM
30 | CCC(=O)NCCSc1c[nH]c2ccccc12 | inactive
31 | COc1ccc(Cl)cc1-c1nc(-c2ccc(Br)o2)no1 | 8.51 µM
32 | CCOC(=O)C1(CC2CCCCO2)CCN(Cc2cc3ccccc3[nH]2)CC1 (stereo not drawn) | > 55.7 µM (inactive)
33 | COc1ccccc1-c1nnc(SCC(=O)NC2CCCCC2)o1 | 1.87 µM
34 | CCN1CCN(C(=O)c2cc3c(-c4ccc(Cl)cc4)nn(C)c3s2)CC1 | > 55.7 µM (inactive)
35 | CCOc1ccccc1-c1n[nH]c(=S)o1 | 0.521 µM
36 | O=C(Nc1nnc(-c2ccccc2Cl)o1)c1nc2ccccc2s1 | > 55.7 µM (inactive)
37 | CCn1c(C(=O)Nc2ccsc2C(=O)OC)cc2sc(Cl)cc21 | > 55.7 µM (inactive)

Now from value to compound:

Row | IC50 | Structure (SMILES)
38 | inactive | COCCNC(=O)C(=O)NNC(=O)c1ccccc1OC
39 | > 55.7 µM (inactive) | CC(=O)n1cc(Nc2ccc([N+](=O)[O-])cc2)c2ccccc21
40 | 2.5 µM | CC(=O)NCCC(=O)N1CCc2c([nH]c3ccccc23)C1c1cccc(C)c1 (stereo not drawn)
41 | > 6.19 µM (inactive) | CC(C)CC1c2[nH]c3ccccc3c2CCN1C(=O)CCC(=O)N(C)C (stereo not drawn)
42 | 2.11 µM | Cc1nc(/N=C(\N)Nc2ccccc2)nc2ccccc12
43 | 0.468 µM | CC(C)CC(=O)NC(=S)Nc1nc(-c2ccccc2)cs1
44 | > 55.7 µM (inactive) | CC(=O)N1N=C(c2ccccc2O)OC1(C)CC(=O)Nc1ccccc1 (stereo not drawn)
45 | > 18.6 µM (inactive) | COC(=O)c1sccc1NC(=O)c1ccc(Br)s1
46 | 2.44 µM | COc1ccc(C2c3[nH]c4ccccc4c3CCN2C(=O)c2ccc(=O)n(C)n2)c(F)c1 (stereo not drawn)
47 | 2.02 µM | CCC(C(=O)Nc1ccccc1OC)n1c(C(=O)OC)cc2ccsc21 (stereo not drawn)
48 | 5.67 µM | O=C(O)C1CC=CCC1C(=O)Nc1ccc(S(=O)(=O)N2CCCc3ccccc32)cc1 (stereo not drawn)
49 | > 55.7 µM (inactive) | CC(=O)NCCC(=O)N1CCc2c([nH]c3ccccc23)C1c1cccc(Cl)c1 (stereo not drawn)
50 | 6.03 µM | COC(=O)NNC(=O)c1ccccc1OC
51 | 1.3 µM | COc1ccccc1C(=O)NNC(=O)c1ccc(NC(=O)C(C)C)cc1
52 | 2.44 µM | O=C(Nc1ccccc1O)c1csc2c1CCCC2
53 | 5.79 µM | COc1ccc(-c2nc3scc(-c4ccccc4)n3n2)cc1
